In the supplement of paper PMC13380429:

Tests used:
Settings in all cases: 72 h
Caco-2 [1] = assay: cell viability relative to DMSO; higher = less toxic
Calu-3 [2] = assay: as above
HepG2 [3] = assay: as above
U2OS [4] = assay: as above
Vero E6 [5] = assay: as above
Caco-2 [6] = assay: relative viability EC50 (midpoint between 100% and the lowest measured viability); higher = less toxic
Calu-3 [7] = assay: as above
HepG2 [8] = assay: as above
U2OS [9] = assay: as above
Vero E6 [10] = assay: as above
Caco-2 [11] = assay: drug sensitivity score (DSS) for viability; higher = more toxic; extreme values may be limits of the assay
Calu-3 [12] = assay: as above
HepG2 [13] = assay: as above
U2OS [14] = assay: as above
Vero E6 [15] = assay: as above

Structure (SMILES) | cell viability (Caco-2 [1]; 1 nM) | cell viability (Caco-2 [1]; 10 nM) | cell viability (Caco-2 [1]; 100 nM) | cell viability (Caco-2 [1]; 1000 nM) | cell viability (Caco-2 [1]; 10000 nM) | cell viability (Calu-3 [2]; 1 nM) | cell viability (Calu-3 [2]; 10 nM) | cell viability (Calu-3 [2]; 100 nM) | cell viability (Calu-3 [2]; 1000 nM) | cell viability (Calu-3 [2]; 10000 nM) | cell viability (HepG2 [3]; 1 nM) | cell viability (HepG2 [3]; 10 nM) | cell viability (HepG2 [3]; 100 nM) | cell viability (HepG2 [3]; 1000 nM) | cell viability (HepG2 [3]; 10000 nM) | cell viability (U2OS [4]; 1 nM) | cell viability (U2OS [4]; 10 nM) | cell viability (U2OS [4]; 100 nM) | cell viability (U2OS [4]; 1000 nM) | cell viability (U2OS [4]; 10000 nM) | cell viability (Vero E6 [5]; 1 nM) | cell viability (Vero E6 [5]; 10 nM) | cell viability (Vero E6 [5]; 100 nM) | cell viability (Vero E6 [5]; 1000 nM) | cell viability (Vero E6 [5]; 10000 nM) | relative viability EC50 (Caco-2 [6]) | relative viability EC50 (Calu-3 [7]) | relative viability EC50 (HepG2 [8]) | relative viability EC50 (U2OS [9]) | relative viability EC50 (Vero E6 [10]) | drug sensitivity score (Caco-2 [11]) | drug sensitivity score (Calu-3 [12]) | drug sensitivity score (HepG2 [13]) | drug sensitivity score (U2OS [14]) | drug sensitivity score (Vero E6 [15])
Cc1oc(-c2ccccc2)nc1CCOc1ccc(CC2SC(=O)NC2=O)c2sccc12 (stereo not given) [edaglitazone] | 104% | 98.6% | 90.4% | 96.1% | 87.2% | 106% | 102% | 114% | 97.5% | 102% | 102% | 107% | 93.6% | 100% | 88.8% | 99.4% | 93% | 99.2% | 97.4% | 96.9% | 103% | 102% | 89.4% | 83.7% | 86.7% | > 10 µM | > 10 µM | > 10 µM | > 10 µM | > 10 µM | 0.1 | 0 | 0 | 0 | 2.6
CCc1nc(C)ccc1O [emoxipin] | 95.1% | 99.6% | 98.1% | 98.6% | 90.9% | 105% | 111% | 104% | 96.8% | 105% | 110% | 108% | 97.4% | 99.6% | 108% | 102% | 101% | 106% | 97% | 103% | 98.1% | 102% | 97.3% | 92.7% | 93.2% | > 10 µM | > 10 µM | > 10 µM | > 10 µM | > 10 µM | 0 | 0 | 0 | 0 | 0
CCOC(=O)CCC(=O)O[C@H]1[C@H](O[C@@H]2[C@@H](C)[C@H](O[C@H]3C[C@@](C)(OC)[C@@H](O)[C@H](C)O3)[C@@H](C)C(=O)O[C@H](CC)[C@@](C)(O)[C@H](O)[C@@H](C)C(=O)[C@H](C)C[C@@]2(C)O)O[C@H](C)C[C@@H]1N(C)C [erythromycin-ethylsuccinate] | 87.7% | 114% | 85.5% | 100% | 99.5% | 101% | 98.5% | 100% | 101% | 96.3% | 97.8% | 107% | 101% | 87.5% | 101% | 102% | 103% | 96.8% | 106% | 100% | 112% | 94.8% | 103% | 100% | 104% | > 10 µM | > 10 µM | > 10 µM | > 10 µM | > 10 µM | 0 | 0 | 0 | 0 | 0
O=C(CN1CCNCC1)NC1CCCCC1 [esaprazole] | 105% | 92.2% | 105% | 98.5% | 98.6% | 98.3% | 98% | 101% | 104% | 97.1% | 104% | 99.5% | 100% | 102% | 90.1% | 99% | 100% | 102% | 100% | 108% | 103% | 107% | 99.1% | 107% | 98.5% | > 10 µM | > 10 µM | > 10 µM | > 10 µM | > 10 µM | 0 | 0 | 0 | 0 | 0
C[C@]12CC[C@@H]3c4ccc(OS(=O)(=O)O)cc4CC[C@H]3[C@@H]1CCC2=O [estropipate] | 102% | 96.7% | 112% | 109% | 93.4% | 99.1% | 99.1% | 99.3% | 111% | 103% | 111% | 110% | 103% | 103% | 97.4% | 93.4% | 95.6% | 95% | 98% | 108% | 99.5% | 95.2% | 102% | 84.8% | 101% | > 10 µM | > 10 µM | > 10 µM | > 10 µM | > 10 µM | 0 | 0 | 0 | 0 | 0
Cc1ccc(-c2ncc(Cl)cc2-c2ccc(S(C)(=O)=O)cc2)cn1 [etoricoxib] | 95.3% | 108% | 92.5% | 99.9% | 104% | 94.7% | 99% | 90% | 104% | 101% | 101% | 90.5% | 99.5% | 104% | 98.6% | 98.1% | 103% | 97.2% | 98.5% | 94.2% | 96.4% | 101% | 96.5% | 99.2% | 94% | > 10 µM | > 10 µM | > 10 µM | > 10 µM | > 10 µM | 0 | 0 | 0 | 0 | 0
CCOCCOc1ccccc1C(N)=O [etosalamide] | 91.3% | 89.5% | 108% | 97.9% | 100% | 102% | 90.5% | 97.6% | 101% | 98.7% | 111% | 104% | 86.7% | 101% | 92.3% | 102% | 99.9% | 102% | 101% | 97.7% | 104% | 93.7% | 93.3% | 95.4% | 96.1% | > 10 µM | > 10 µM | > 10 µM | > 10 µM | > 10 µM | 0 | 0 | 0 | 0 | 0
COc1ccc(-c2cc(=O)c3c(O)c(OC)c(O)cc3o2)cc1OC [eupatilin] | 98.3% | 94.8% | 94.7% | 96.9% | 92.9% | 92.2% | 101% | 92.6% | 93.9% | 78.5% | 94.2% | 99% | 85.9% | 99.5% | 90.1% | 105% | 97.3% | 102% | 99.7% | 101% | 99.6% | 102% | 97.2% | 97.3% | 97.8% | > 10 µM | > 10 µM | > 10 µM | > 10 µM | > 10 µM | 0 | 0.9 | 0 | 0 | 0
Cn1cc([S+](C)[O-])c(=O)c2ccc(F)cc21 (stereo not given) [flosequinan] | 110% | 95.3% | 107% | 102% | 95.7% | 98.6% | 95.5% | 99.6% | 101% | 110% | 103% | 97.9% | 97% | 95.4% | 86.9% | 104% | 95.3% | 98.5% | 99% | 102% | 97.5% | 97.7% | 98.8% | 96.3% | 96.4% | > 10 µM | > 10 µM | > 10 µM | > 10 µM | > 10 µM | 0 | 0 | 0.1 | 0 | 0
O=C(O)c1ccccc1Nc1cccc(C(F)(F)F)c1 [flufenamic-acid] | 93.5% | 96.3% | 85.4% | 101% | 96.2% | 101% | 108% | 95.9% | 112% | 92.2% | 93.7% | 103% | 101% | 102% | 101% | 98.5% | 98.1% | 95.5% | 97.5% | 100% | 104% | 94.2% | 100% | 96% | 95.8% | > 10 µM | > 10 µM | > 10 µM | > 10 µM | > 10 µM | 0 | 0 | 0 | 0 | 0
CCOC(=O)c1ncn2c1CN(C)C(=O)c1cc(F)ccc1-2 [flumazenil] | 95.2% | 99.6% | 99.1% | 102% | 105% | 89.2% | 87.6% | 87.1% | 90.8% | 87% | 97.8% | 95% | 97.8% | 90.7% | 95.6% | 99.2% | 103% | 97.3% | 103% | 97.8% | 102% | 97.2% | 100% | 95.4% | 98.8% | > 10 µM | > 10 µM | > 10 µM | > 10 µM | > 10 µM | 0 | 0 | 0 | 0 | 0
C[C@H]1NCc2cc(-c3ccc4c(=O)c(C(=O)O)cn(C5CC5)c4c3OC(F)F)ccc21 [garenoxacin] | 96.1% | 91.2% | 102% | 95.9% | 98.6% | 107% | 92.3% | 105% | 106% | 104% | 95.2% | 97.4% | 92.3% | 109% | 99% | 102% | 96.3% | 99.2% | 98% | 99.7% | 85.3% | 97% | 85.4% | 91.7% | 104% | > 10 µM | > 10 µM | > 10 µM | > 10 µM | > 10 µM | 0 | 0 | 0 | 0 | 0
COC(=O)C1=CO[C@@H](O)[C@@H]2C(CO)=CC[C@H]12 [genipin] | 91.6% | 96.1% | 102% | 96.8% | 88.5% | 88% | 92.8% | 83.6% | 85.1% | 87% | 87.6% | 105% | 103% | 106% | 113% | 93.8% | 94.3% | 99.7% | 92.8% | 100% | 90.1% | 101% | 95.7% | 99.5% | 106% | > 10 µM | > 10 µM | > 10 µM | > 10 µM | > 10 µM | 0.1 | 2.4 | 0 | 0 | 0
CC[n+]1c(-c2ccccc2)c2cc(N)ccc2c2ccc(N)cc21 [homidium] | 95.9% | 93.2% | 87.2% | 55.4% | 4.5% | 103% | 98.9% | 93% | 97.7% | 26.4% | 107% | 101% | 88% | 64.5% | 35.7% | 97.1% | 96% | 98.4% | 87.8% | 39.2% | 92.8% | 100% | 90.5% | 94.5% | 85.3% | 0.984 µM | 2.94 µM | 0.679 µM | 1.74 µM | > 10 µM | 10.7 | 4.4 | 8.1 | 5.3 | 0.1
